Test results as given in PMC4421842 (Nature Communications, 2015).

How the values were obtained:
human topoisomerase II = biological target: T1, human topoisomerase II (Homo sapiens, UniProt P11388); experiment: Human topoisomerase decatenation assay; assay type: biochemical; details: decatenation assay
T1 construct: purchased Inspiralis
Protocol: The decatenation assay was performed with the Human Topo II Decatenation Assay Kit (Inspiralis), according to the manufacturer's instructions, with minor modifications. First, a master mix was made containing 2 μl of 10 × assay buffer (500 mM Tris-HCl pH 7.5, 1250, mM NaCl, 100 mM MgCl2, 50 mM DTT, 1,000 μg ml^−1 albumin), 0.67 μl of 30 mM ATP, 1.34 μl of 0.1 ng μl^−1 kDNA, and 14.3 μl of nuclease-free water per sample is made. DMSO or 30 × compound is added to a 0.5-ml Eppendorf tube (0.67 μl per tube). The master mix is then added to each tube (18.3 μl per tube). Finally, 1 U of human topoisomerase (1 μl of 1 U μl^−1 stock) is added to each tube for a final volume of 20 μl. The tubes are then incubated at 37 °C for 30 min. Reactions are stopped by the addition of 20 μl of 24:1 chloroform:isoamyl alcohol and 20 μl of stop dye (40% sucrose, 1 mM EDTA, 100 mM Tris-HCl pH 7.5, 0.5 μg ml^−1 bromophenol blue). Samples were run on 1% agarose gels containing 0.5 μg ml^−1 ethidium bromide for 1 h at 110 V or until the dye front was approximately halfway down the gel. Gels were imaged on a Molecular Imager Gel Doc XR+ (Biorad).

Herring Sperm DNA = experiment: Intercalation assay (ethidium bromide displacement); assay type: binding
Protocol: Intercalation assays were performed as previously described. The ability of DNM-2 to intercalate into DNA was measured by an ethidium bromide displacement assay. Herring Sperm DNA (34 μg ml^−1 final) was premixed with buffer containing ethidium bromide (50 mM Tris base, 100 mM NaCl, 1 mM EDTA, 5 μM EtBr pH 7.5). Ninety-five microlitres of this solution was added to a 96-well plate containing 5 μl of DMSO solutions of compounds. […] Doxorubicin was used as a positive control. The reactions were allowed to incubate for 30 min. Fluorescence was then read on a Gemini microplate reader (Molecular Devices, excitation=545 nm, emission=595 nm).

[1] = In-vivo toxicity assessment, once daily for 10 days; design: species or system BALB/c mice; details: mice
Protocol: Toxicity was assessed as previously described. Specifically, heparinized whole blood was collected for assessment of total white blood cells, neutrophils, lymphocytes, haematocrit, platelets, creatinine, blood urea, nitrogen, albumin, alanine aminotransferase, alkaline phosphatase and total bilirubin. Mice were euthanized by overdosing with ketamine/xylazine and the heart, lung, kidney, liver, spleen, gastrointestinal tract and the brain were collected for histopathology. Tissue samples were fixed 24 h in 10% neutral buffered formalin, processed and paraffin embedded, sectioned (5 μm thickness) and stained with haematoxylin and eosin. All slides were systematically evaluated by a single board-certified veterinary anatomic pathologist (SL) for evidence of acute or chronic inflammation and toxicity. All lesions were characterized, recorded and scored for severity (minimal=1, mild=2, moderate=3, marked=4, and severe=5).

S83L E. coli DNA gyrase = biological target: T2, S83L E. coli DNA gyrase (Escherichia coli, UniProt P0AES4+P0AES6, S83L); assay type: biochemical; details: DNA cleavage assay
T2 construct: His tag (pTRCHisA vector; purified on Ni-NTA); made in house; host or cells: E. coli One Shot BL21 Star (DE3)

human erythrocytes = experiment: In-vitro haemolysis assay; assay type: cell-based; details: human red blood cells, 2 h at 37°C, 160 µg mL-1 or highest concentration solubility allowed
Protocol: Haemolysis assays were performed as previously described. Briefly, assays were performed using human erythrocytes within 3 days of receipt. One millilitre of human blood purchased from Bioreclamation, Inc. (Hicksville, NY) was centrifuged (10,000 × g, 2 min). The pellet was washed three times with sterile saline (0.9% NaCl in water) by repeated gentle suspension and centrifugation. The pellet was resuspended in RBC buffer (10 mM Na2HPO4, 150 mM NaCl, 1 mM MgCl2 pH 7.4). To evaluate haemolytic activity of DNM and derivatives, 1 μl either 3.2 mg ml^−1 DMSO stock (or the most concentrated stock of the compound available if not soluble at 3.2 mg ml^−1 in DMSO) was transferred to 0.5 ml Eppendorf tubes containing 19 μl RBC buffer. Negative control tubes contained 1 μl DMSO and 19 μl RBC buffer, and positive control tubes contained 1 μl DMSO and 19 μl sterile deionized water. A suspension of washed erythrocytes (10 μl) was added to each tubes and samples were incubated at 37 °C for 2 h. Samples were centrifuged at 10,000 × g for 2 min and the supernatants from each sample (25 μl) were transferred to a clear, sterile 384-well plate. The absorbance of these supernatants was measured at 540 nm using a SpectraMaxPlus384 absorbance plate reader (Molecular Devices). Per cent haemolysis of each sample was calculated relative to the average absorbance values measured for positive controls.

[2] = 50 mg kg-1 oral gavage once daily for 10 days
[3] = 50 mg kg^−1 oral gavage once daily for 10 days

**Q.** With `CCn1c(=O)cc(C)c2cc3c(C)cc(=O)n4c3c(c21)OC4` [DNM-2] as the compound, how does the “concentration inhibiting human topoisomerase II” value (human topoisomerase II) read?
**A.** > 30 µM

**Q.** What about the “concentration with significant DNA intercalation” value (Herring Sperm DNA) of the same compound?
**A.** > 30 µM

**Q.** And the ALP [1, 2]?
**A.** 60 ± 10 U/L

**Q.** What about the ALT [1, 2] of the same compound?
**A.** 36 ± 1 U/L

**Q.** What about the Albumin [1, 2] of the same compound?
**A.** 3.2 ± 0.1 g/dL

**Q.** What about the “BUN (Urea)” value [1, 2] of the same compound?
**A.** 32.0 ± 0.4 mg/dL

**Q.** And the Creatine [1, 2]?
**A.** 0.2 ± 0.0 mg/dL

**Q.** What about the Globulin [1, 2] of the same compound?
**A.** 2.62 ± 0.05 g/dL

**Q.** What about the Hematocrit [1, 2] of the same compound?
**A.** 40 ± 1%

**Q.** What about the Hemoglobin [1, 2] of the same compound?
**A.** 14.2 ± 0.3 g/dL

**Q.** And the Lymphocyte [1, 2]?
**A.** 81 ± 3 % of WBC

**Q.** And the “Mean Cell Volume” value [1, 2]?
**A.** 47.3 ± 0.4 fL

**Q.** What about the Neutrophil [1, 2] of the same compound?
**A.** 18 ± 3 % of WBC

**Q.** What about the RBC [1, 2] of the same compound?
**A.** 8.5 ± 0.2 X106/µL

**Q.** And the WBC [1, 2]?
**A.** 3800 ± 300 cells/µL

**Q.** What about the Platelet ([1]; 50 mg kg-1 oral gavage once daily for 10 days, counts low because of platelet clumps) of the same compound?
**A.** 60,000 ± 10,000 cells/µL

**Q.** And the “Total Bilirubin” value ([1]; 50 mg kg-1 oral gavage once daily for 10 days, increased also in vehicle due to hemolysis during blood collection)?
**A.** 0.7 ± 0.1 mg/dL

**Q.** And the “adipocytes and triglyceride levels” value [1, 3]?
**A.** Increased vacuolation of white and brown adipocytes with a minimal increase in triglyceride levels

**Q.** And the “haematological and non-haematological toxicity markers” value [1, 3]?
**A.** No clinically significant evidence for myelosuppression, renal injury or hepatic toxicity was identified

**Q.** And the “histopathology of kidney, brain, lung, liver, spleen, heart and stomach” value [1, 3]?
**A.** did not reveal any evidence of toxicity

**Q.** What about the “histopathology of small intestine sections” value [1, 3] of the same compound?
**A.** mild intestinal dilation associated with villi atrophy

**Q.** What does the source list for `Cc1cc(=O)n(C)c2c3c4c(cc12)c(C)cc(=O)n4CO3` [DNM, deoxynybomycin]?
**A.** concentration giving significant buildup of OC DNA (P<0.05) (S83L E. coli DNA gyrase): 0.17 µM; haemolysis (human erythrocytes): none of these compounds induce haemolysis
